Patent US11634451B2, “Method for the site-specific enzymatic labelling of nucleic acids in vitro by incorporation of unnatural nucleotides” (The Scripps Research Institute, priority 2013, dated 2023)
Marks after values point to notes of the source that are not given here.

Key:
[1] = test system: OneTaq polymerase; experiment: PCR-based screen and amplification of DNA containing unnatural base pairs, OneTaq (Example 1); assay type: biochemical; details: for Amplification: -^a = no amplification was detected
Protocol: (§1) The triphosphates of the 6 group were prepared from the previously reported nucleosides (Kubelka, T., Slavetinska, L., Eigner, V. and Hocek, M. Synthesis of 2,6-disubstituted pyridin-3-yl C-2′-deoxyribonucleosides through chemoselective transformations of bromo-chloropyridine C-nucleosides. Org. Biomol. Chem., 11, 4702-4718) according to Ludwig, J. and Eckstein, F. Rapid and efficient synthesis of nucleoside 5′-0-(1-thiotriphosphates), 5′-triphosphates and 2′,3′-cyclophosphorothioates using 2-chloro-4H-1,3,2-benzodioxaphosphorin-4-one. J. Org. Chem., 54, 631-635. The purity of all other triphosphates was confirmed by MALDI-TOF and UV-VIS. Taq and OneTaq DNA polymerases were purchased from New England Biolabs (Ipswich, Mass.). A mixture of dNTPs was purchased from Fermentas (Glen Burnie, Md.). SYBR Green I Nucleic Acid Gel Stain (10,000×) was purchased from Life Technologies (Carlsbad, Calif.). The synthesis of the DNA templates, D8 (Malyshev, D. A., Dhami, K., Quach, H. T., Lavergne, T., Ordoukhanian, P., Torkamani, A. and Romesberg, F. E. Efficient and sequence-independent replication of DNA containing a third base pair establishes a functional six-letter genetic alphabet. Proc. Natl. Acad. Sci. USA, 109, 12005-12010), used for screening rounds 1-5, and D6 (Malyshev, D. A., Seo, Y. J., Ordoukhanian, P. and Romesberg, F. E. PCR with an expanded genetic alphabet. J. Am. Chem. Soc., 131, 14620-14621), used for all other amplifications, was described previously. Sanger sequencing was carried out as described previously (Malyshev, D. A., Dhami, K., Quach, H. T., Lavergne, T., Ordoukhanian, P., Torkamani, A. and Romesberg, F. E. Efficient and sequence-independent replication of DNA containing a third base pair establishes a functional six-letter genetic alphabet. Proc. Natl. Acad. Sci. USA, 109, 12005-12010). Raw Sanger sequencing traces were used to determine the percent retention of the unnatural base pairs, which was converted to fidelity per doubling, as described (Malyshev, D. A., Dhami, K., Quach, H. T., Lavergne, T., Ordoukhanian, P., Torkamani, A. and Romesberg, F. E. Efficient and sequence-independent replication of DNA containing a third base pair establishes a functional six-letter genetic alphabet. Proc. Natl. Acad. Sci. USA, 109, 12005-12010; Malyshev, D. A., Seo, Y. J., Ordoukhanian, P. and Romesberg, F. E. PCR with an expanded genetic alphabet. J. Am. Chem. Soc., 131, 14620-14621).
(§2) All PCR amplifications were performed in a CFX Connect Real-Time PCR Detection System (Bio-Rad), in a total volume of 25 μL using the following conditions: 1× OneTaq reaction buffer, 0.5× Sybr Green I, MgSO4 adjusted to 4.0 mM, 0.2 mM of each dNTP, 50 μM of each unnatural triphosphate, […] of Primer1 and Primer2 (See Table 2), and 0.02 U/μl of the DNA polymerase. Other conditions specific for each round of screening are described in Table 3. Amplified products were purified using DNA Clean and Concentrator-5 spin columns from Zymo Research (Irvine, Calif.). After purification, the PCR products were sequenced on a 3730 DNA Analyzer (Applied Biosystems) to determine the retention of the unnatural base pair as described below. Fidelity was characterized from unnatural base pair (UBP) retention as determined by sequencing with Primer1 on a 3730 DNA Analyzer (Applied Biosystems).
(§3) Specific PCR assay conditions. PCR with the most promising UBPs was carried out with the conditions as described in Table 3. PCR products were further purified on […] gels, followed by single band excision and subsequent clean up using the Zymo Research Zymoclean Gel DNA Recovery Kit. After elution with 20 μl of water, the DNA concentration was measured using fluorescent dye binding (Quant-iT dsDNA HS Assay kit, Life Technologies), and purified amplicons were sequenced in triplicate with both Primer1 and Primer2 to determine UBP retention and thus amplification fidelity. […]

[2] = biological target: T1, Taq polymerase (Thermus aquaticus, UniProt P19821); experiment: PCR-based screen and amplification of DNA containing unnatural base pairs, Taq (Example 1); assay type: biochemical; details: Taq, 10 s Extension, 52 cycles, D6 template
T1 construct: purchased New England Biolabs (Ipswich, Mass.)
T1 sequence (P19821 whole entry): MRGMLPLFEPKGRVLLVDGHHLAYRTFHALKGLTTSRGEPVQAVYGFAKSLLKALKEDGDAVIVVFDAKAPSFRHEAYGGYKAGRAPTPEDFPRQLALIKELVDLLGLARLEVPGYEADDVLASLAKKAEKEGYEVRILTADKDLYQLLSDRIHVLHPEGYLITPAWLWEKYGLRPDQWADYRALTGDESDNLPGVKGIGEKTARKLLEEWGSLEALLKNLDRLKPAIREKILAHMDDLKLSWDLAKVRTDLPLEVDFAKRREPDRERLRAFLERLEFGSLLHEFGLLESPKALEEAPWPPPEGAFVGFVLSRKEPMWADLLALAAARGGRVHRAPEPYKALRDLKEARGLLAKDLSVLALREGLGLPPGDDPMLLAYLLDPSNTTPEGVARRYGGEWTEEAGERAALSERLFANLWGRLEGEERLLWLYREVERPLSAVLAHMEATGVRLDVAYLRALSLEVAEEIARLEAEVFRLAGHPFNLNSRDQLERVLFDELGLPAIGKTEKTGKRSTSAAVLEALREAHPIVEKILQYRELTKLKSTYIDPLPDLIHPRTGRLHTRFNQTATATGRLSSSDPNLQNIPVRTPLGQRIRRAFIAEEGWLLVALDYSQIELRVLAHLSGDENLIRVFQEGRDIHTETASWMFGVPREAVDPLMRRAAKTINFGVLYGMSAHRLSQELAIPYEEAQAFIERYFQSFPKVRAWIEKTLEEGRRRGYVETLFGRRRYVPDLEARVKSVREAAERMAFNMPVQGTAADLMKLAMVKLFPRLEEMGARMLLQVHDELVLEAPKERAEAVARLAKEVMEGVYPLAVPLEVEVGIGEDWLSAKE
Protocol: as §1, §2, §3

[3] = ^b 10 pg D6 template, 24 cycles, OneTaq polymerase, 68° C. for 10 s
[4] = OneTaq, 1 min Extension, 52 cycles, D6 template
[5] = OneTaq, 16 cycles, 1 min extension

COc1cc(N=[N+]=[N-])ccc1[C@H]1C[C@H](O)[C@@H](COP(=O)(O)OP(=O)(O)OP(=O)(O)O)O1.O=P(O)(O)OP(=O)(O)OP(=O)(O)OC[C@H]1O[C@@H](n2ccc3ccsc3c2=S)C[C@@H]1O [TPT3-ZMO]
Retention, % [1, 3]: 86^b %

COc1cc2ccccc2cc1[C@H]1C[C@H](O)[C@@H](COP(=O)(O)OP(=O)(O)OP(=O)(O)O)O1.Cc1ccc2c(=S)n([C@H]3C[C@H](O)[C@@H](COP(=O)(O)OP(=O)(O)OP(=O)(O)O)O3)ccc2c1 [5SICS-NaM, reference compound]
Amplification, ×10^12 [2]: 9.3 ×10^12 | Fidelity per Doubling, % [2]: <85^b % | Retention, % [2]: <50^b % | Amplification, ×10^12 [1, 4]: 8.1 ×10^12 | Fidelity per Doubling, % [1, 4]: 99.00 ± 0.02% | Retention, % [1, 4]: 77.1 ± 0.7%

COc1cc(C)ccc1[C@H]1C[C@H](O)[C@@H](COP(=O)(O)OP(=O)(O)OP(=O)(O)O)O1.O=P(O)(O)OP(=O)(O)OP(=O)(O)OC[C@H]1O[C@@H](n2ccc3ccsc3c2=S)C[C@@H]1O [TPT3-MMO2]
Fidelity, % [1, 5]: 99.06 ± 0.40% | Retention, % [1, 5]: 90.95 ± 3.63% | Amplification [1, 5]: 1096

COc1ccc([C@H]2C[C@H](O)[C@@H](COP(=O)(O)OP(=O)(O)OP(=O)(O)O)O2)c(OC)c1.O=P(O)(O)OP(=O)(O)OP(=O)(O)OC[C@H]1O[C@@H](n2ccc3ccsc3c2=S)C[C@@H]1O [TPT3-DMO]
Fidelity, % [1, 5]: 98.23 ± 0.23% | Retention, % [1, 5]: 84.02 ± 1.92% | Amplification [1, 5]: 864

Cc1ccc([C@H]2C[C@H](O)[C@@H](COP(=O)(O)OP(=O)(O)OP(=O)(O)O)O2)c(Cl)n1.O=P(O)(O)OP(=O)(O)OP(=O)(O)OC[C@H]1O[C@@H](n2ccc3ccsc3c2=S)C[C@@H]1O [TPT3-TOK580]
Fidelity, % [1, 5]: <85 ^b % | Retention, % [1, 5]: <50 ^b % | Amplification [1, 5]: 1056 | Retention, % ([1]; OneTaq, 16 cycles, 1 min extension, listed as dTPT3-dTOK580): poorly replicated

C#Cc1cc(OC)c([C@H]2C[C@H](O)[C@@H](COP(=O)(O)OP(=O)(O)OP(=O)(O)O)O2)cc1F.O=P(O)(O)OP(=O)(O)OP(=O)(O)OC[C@H]1O[C@@H](n2cc(F)c3ccsc3c2=S)C[C@@H]1O [FTPT3-FEMO]
Amplification, ×10^12 [2]: 5.7 ×10^12 | Fidelity per Doubling, % [2]: 99.51 ± 0.11% | Retention, % [2]: 81 ± 4% | Amplification, ×10^12 [1, 4]: 6.3 ×10^12 | Fidelity per Doubling, % [1, 4]: 99.24 ± 0.04% | Retention, % [1, 4]: 72.4 ± 1.4%

COc1cc(Cl)ccc1[C@H]1C[C@H](O)[C@@H](COP(=O)(O)OP(=O)(O)OP(=O)(O)O)O1.O=P(O)(O)OP(=O)(O)OP(=O)(O)OC[C@H]1O[C@@H](n2ccc3ccsc3c2=S)C[C@@H]1O [TPT3-CIMO]
Retention, % [1, 3]: 90^b %

C#Cc1cc(OC)c([C@H]2C[C@H](O)[C@@H](COP(=O)(O)OP(=O)(O)OP(=O)(O)O)O2)cc1F.O=P(O)(O)OP(=O)(O)OP(=O)(O)OC[C@H]1O[C@@H](n2ccc3ccccc3c2=S)C[C@@H]1O [SICS-FEMO]
Retention, % [1, 3]: 92^b %

CSc1nc(C)ccc1[C@H]1C[C@H](O)[C@@H](COP(=O)(O)OP(=O)(O)OP(=O)(O)O)O1.O=P(O)(O)OP(=O)(O)OP(=O)(O)OC[C@H]1O[C@@H](n2ccc3ccsc3c2=S)C[C@@H]1O [TPT3-TOK588]
Fidelity, % [1, 5]: 94.99 ± 1.13% | Retention, % [1, 5]: 61.98 ± 7.09% | Amplification [1, 5]: 666 | Retention, % ([1]; OneTaq, 16 cycles, 1 min extension, listed as dTPT3-dTOK588): 62%

CSc1ccc(C2CC(O)C(CO)O2)c(SC)n1.OCC1OC(n2ccc3ccsc3c2=S)CC1O (stereo not drawn) [TPT3-TOK576]
Fidelity, % [1, 5]: 98.35 ± 0.14% | Retention, % [1, 5]: 85.20 ± 1.12% | Amplification [1, 5]: 780 | Retention, % ([1]; OneTaq, 16 cycles, 1 min extension, listed as dTPT3-dTOK576): 85%
